Measurements from a melting point compilation (Tetko et al.; mined from patent text by program, amines drawn as free bases though some values may be those of a salt).

melting point [°C]	Structure (SMILES)
247 to 249	CC(=O)NCC1CN(c2ccc(N3CCN(c4nnc(C)s4)CC3)c(F)c2)C(=O)O1 (stereo not given)
157 to 159	NC1=NC2(CN(C(=O)OCc3ccccc3)C2)Nc2cccc(F)c21
164 to 170	NS(=O)(=O)c1ccc(-n2nc(CCCNC(=O)NC3CCCCCC3)cc2-c2ccccc2)cc1
144 to 145	CCOC(=O)C1=C(C)NC(CN2C(=O)c3ccccc3C2=O)=C(C(=O)OCC)C1c1ccc(F)cc1 (stereo not given)
142 to 143	CC(=O)NC(=O)N1CCSC1c1ccccc1OCCN1CCN(c2cccc(F)c2)CC1 (stereo not given)
148 to 149	Cn1nc(-c2cccnc2)nc1-c1cccnc1
192	COc1ccc(NC(=S)c2ccc(N(C)C)cc2)cc1
115 to 116	CSc1nnc2ccc3ccccc3n12
47 to 49	CCCCCN(CCCCC)CCC(O)(P(=O)(O)O)P(=O)(O)O
74 to 76	CCOP(=O)(COCCOn1cnc2c(N)ncnc21)OCC
194 to 195	CC(C)(CO)NC(=O)c1nn(C2CCCCO2)cc1NC(=O)c1ccccn1 (stereo not given)
204 to 205	O=C(O)CCc1oc(-n2ncc3ccccc32)nc1-c1ccc(Cl)cc1
31	CCOC(=O)CCCOc1cccc2c1SCCC2
93 to 95	COc1ccc2c(c1)CC(C)(CN1CCN(c3ccccc3)CC1)NC2=O (stereo not given)
64 to 65	O=Cc1csc(-c2ccccc2)c1
130 to 135	CCOC(=O)c1ccc(N)c(C(CCNC(=O)OC(C)(C)C)=NOC(C)=O)c1
122 to 123	CSC(=Cc1cnn(-c2c(Cl)cc(C(F)(F)F)cc2Cl)n1)S(C)=O (stereo not given)
178 to 182	O=C(O)Cc1cccc(C=C(C(=O)O)c2nc(-c3ccccc3)c(-c3ccccc3)o2)c1
96	O=C(O)c1ccc2c(c1)OC(c1cc(F)cc(F)c1)(c1cc(F)cc(F)c1)O2

melting point [°C]	Structure (SMILES)
85 to 86	C[N+]([O-])=CCC=Cc1ccccc1
95 to 97	CCOC(=O)C(=O)Nc1ncccc1C#N
57.7 to 57.9	CCCCCCC(=O)Oc1ccc(-c2ccc(C#N)cc2)cc1
202 to 204	CCCc1nn(C)c2c(=O)[nH]c(Cc3ccccc3NS(=O)(=O)CCCN(C)C)nc12
134 to 136	O=C(O)CCCC(=O)c1ccc(O)c(CCC(=O)O)n1
185	CNC(=O)c1ccc(NC(=O)OC(C)(C)C)cc1
256	Cc1cn(C)c2cc(C(F)(F)F)c(O)cc12
73 to 75	CCOCCOc1ccc2c(c1)C(N(CC)S(C)(=O)=O)CC(C)(C)O2 (stereo not given)
237 to 239	CC1(C)CC(O)CC(C)(C)N1Cc1ccc(CN2C(C)(C)CC(O)CC2(C)C)cc1
248	Cc1cccc(N)c1C(=O)Nc1nnn[nH]1
160	Cc1nnc(-c2ccccc2)c2nc(OCc3ncnn3C)c(C3CCC3)n12
236 to 238	CCNC(=O)N1CCN(c2ccc(NC(=O)c3cc(=O)c4cc(F)cc(N5CCN(C)CC5)c4o3)cc2)CC1
168 to 169	CCCCCCNC(=O)Nc1ccccc1C(=O)NCC1CCN(C(c2ccccc2)c2ccccc2)CC1
81 to 82	C[C@@H](O)CN1CC(c2cccc(C(F)(F)F)c2)C1
259 to 261	CNC(=O)c1cnc(SC)nc1Nc1ccc2[nH]ncc2c1
125 to 127	O=C(O)c1cc(N=C=S)cc(N=C=S)c1
177 to 179	CCOC(=O)c1cn(C2CC2)c2nc(N3C[C@@H](CN(C)C(=O)C(F)(F)F)[C@@H](F)C3)c(F)cc2c1=O (relative stereo)
121 to 133	COc1ccc(/C=C/c2cc(/C=C/c3ccc4cc[nH]c4c3)[nH]n2)c(OC)c1
214	O=C(N[C@H]1CC[C@H](CCN2CCN(c3nccc4c3CCO4)CC2)CC1)c1ccc(N2CCCCC2)cc1

Structure (SMILES)	melting point [°C]
CCC(Oc1cc(F)ccc1F)C1=NCCN1 (stereo not given)	110
CC(C)(C)OC(=O)N(C(=O)OC(C)(C)C)c1c(C#CBr)c(C#N)nn1-c1c(Cl)cc(C(F)(F)F)cc1Cl	130 to 131
